Key:
[1] = target: T1, PI3K-α (PIK3CA) H1047R mutant, p110α/p85α complex (Homo sapiens, UniProt P42336, H1047R); assay: PI3K-alpha kinase (PIK3CA) biochemical activity, ADP-Glo, H1047R mutant; settings: Soy PI lipid substrate
T1 construct: Recombinant, catalytically active human full length PIK3KA Wild-type and H1047R mutant; 6×His (N); purchased EMD Millipore Sigma 14-792M
Outline: (§1)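 ADP formation measured by ADP-Glo luminescence after reaction at 27 °C to about 10% ATP turnover, using 20 uM ATP, 50 uM PIP2diC8 or soy PI lipid, HEPES pH 7.4 with MgCl2. Enzyme (1-5 nM WT or H1047R p110α/p85α) and compound preincubated 1 h first; 10-point 1:3 curves fitted four-parameter for IC50.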

[2] = target: T2, PI3K-α (PIK3CA) wild-type (WT), p110α/p85α complex (Homo sapiens, UniProt P42336); assay: PI3K-alpha kinase (PIK3CA) biochemical activity, ADP-Glo, wild-type; settings: Soy PI lipid substrate
T2 construct: Recombinant, catalytically active human full length PIK3KA Wild-type and H1047R mutant; 6×His (N); purchased EMD Millipore Sigma 14-602M
Outline: as §1

[3] = target: PI3K-α (PIK3CA) in MDA-MB-453 cells (Homo sapiens, UniProt P42336); assay: PI3K-alpha kinase (PIK3CA) in vitro cell based assay, MDA-MB-453 cells, SureFire Ultra AlphaLisa; settings: read-out: PI3K-α (PIK3CA) in vitro cell based assay IC50
PI3K-α (PIK3CA) in MDA-MB-453 cells, sequence (P27986 2-724): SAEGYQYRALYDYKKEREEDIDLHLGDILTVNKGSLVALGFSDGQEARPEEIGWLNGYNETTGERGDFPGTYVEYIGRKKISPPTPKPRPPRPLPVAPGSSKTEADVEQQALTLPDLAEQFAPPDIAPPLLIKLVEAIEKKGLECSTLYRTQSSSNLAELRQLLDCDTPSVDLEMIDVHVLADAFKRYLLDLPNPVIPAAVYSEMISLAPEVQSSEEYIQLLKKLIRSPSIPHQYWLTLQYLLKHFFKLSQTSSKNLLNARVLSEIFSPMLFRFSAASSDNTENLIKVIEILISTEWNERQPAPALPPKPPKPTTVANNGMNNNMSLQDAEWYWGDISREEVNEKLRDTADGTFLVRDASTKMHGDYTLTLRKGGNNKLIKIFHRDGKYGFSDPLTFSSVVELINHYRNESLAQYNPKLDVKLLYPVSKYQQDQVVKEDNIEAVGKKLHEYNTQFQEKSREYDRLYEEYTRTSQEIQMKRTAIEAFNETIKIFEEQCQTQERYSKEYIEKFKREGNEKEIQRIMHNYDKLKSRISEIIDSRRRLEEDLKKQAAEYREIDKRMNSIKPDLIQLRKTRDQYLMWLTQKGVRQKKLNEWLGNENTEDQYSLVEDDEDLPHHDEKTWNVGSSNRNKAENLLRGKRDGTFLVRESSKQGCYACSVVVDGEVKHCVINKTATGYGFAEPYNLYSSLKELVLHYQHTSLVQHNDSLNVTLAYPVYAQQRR
PI3K-α (PIK3CA) in MDA-MB-453 cells, sequence (P42336 whole entry): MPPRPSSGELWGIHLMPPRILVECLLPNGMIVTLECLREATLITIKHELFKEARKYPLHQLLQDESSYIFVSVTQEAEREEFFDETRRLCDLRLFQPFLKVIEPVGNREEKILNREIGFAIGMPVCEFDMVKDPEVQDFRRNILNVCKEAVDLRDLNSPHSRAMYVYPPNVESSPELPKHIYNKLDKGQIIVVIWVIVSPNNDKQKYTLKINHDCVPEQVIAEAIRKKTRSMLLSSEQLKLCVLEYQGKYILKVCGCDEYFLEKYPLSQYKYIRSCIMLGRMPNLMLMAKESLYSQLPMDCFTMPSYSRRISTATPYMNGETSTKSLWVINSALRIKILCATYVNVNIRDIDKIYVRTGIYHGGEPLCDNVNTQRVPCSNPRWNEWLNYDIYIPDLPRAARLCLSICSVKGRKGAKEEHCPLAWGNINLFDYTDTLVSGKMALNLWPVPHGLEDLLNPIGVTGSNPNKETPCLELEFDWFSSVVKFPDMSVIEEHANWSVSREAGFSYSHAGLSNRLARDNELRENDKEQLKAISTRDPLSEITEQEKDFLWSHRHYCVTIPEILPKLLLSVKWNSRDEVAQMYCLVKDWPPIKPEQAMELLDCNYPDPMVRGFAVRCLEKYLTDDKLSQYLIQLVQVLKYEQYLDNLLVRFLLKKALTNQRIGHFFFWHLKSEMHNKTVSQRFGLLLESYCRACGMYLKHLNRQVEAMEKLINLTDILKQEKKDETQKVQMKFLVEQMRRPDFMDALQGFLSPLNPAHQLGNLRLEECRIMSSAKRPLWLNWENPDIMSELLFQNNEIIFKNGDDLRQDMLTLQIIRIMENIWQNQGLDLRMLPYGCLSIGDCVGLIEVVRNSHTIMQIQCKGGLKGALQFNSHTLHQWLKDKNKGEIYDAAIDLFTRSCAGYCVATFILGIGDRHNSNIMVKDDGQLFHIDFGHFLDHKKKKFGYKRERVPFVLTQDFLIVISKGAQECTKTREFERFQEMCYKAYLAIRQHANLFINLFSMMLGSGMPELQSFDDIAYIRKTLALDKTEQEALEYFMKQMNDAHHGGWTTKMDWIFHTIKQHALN
Outline: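 Cells treated 3 h in serum-free MEM with 1 μg/mL insulin, 10-point 1:3 series in 0.3% DMSO, then lysed for SureFire Ultra AlphaLisa read-out. Inhibition normalized to DMSO (max) and 1 μM GDC-0032 (min); duplicate averages fitted by 4-parameter logistic for relative IC50.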

T1 sequence (P42336 whole entry H1047R): as the sequence (P42336 whole entry) above, with H1047R counted along it
T1 sequence (P27986 whole entry partner): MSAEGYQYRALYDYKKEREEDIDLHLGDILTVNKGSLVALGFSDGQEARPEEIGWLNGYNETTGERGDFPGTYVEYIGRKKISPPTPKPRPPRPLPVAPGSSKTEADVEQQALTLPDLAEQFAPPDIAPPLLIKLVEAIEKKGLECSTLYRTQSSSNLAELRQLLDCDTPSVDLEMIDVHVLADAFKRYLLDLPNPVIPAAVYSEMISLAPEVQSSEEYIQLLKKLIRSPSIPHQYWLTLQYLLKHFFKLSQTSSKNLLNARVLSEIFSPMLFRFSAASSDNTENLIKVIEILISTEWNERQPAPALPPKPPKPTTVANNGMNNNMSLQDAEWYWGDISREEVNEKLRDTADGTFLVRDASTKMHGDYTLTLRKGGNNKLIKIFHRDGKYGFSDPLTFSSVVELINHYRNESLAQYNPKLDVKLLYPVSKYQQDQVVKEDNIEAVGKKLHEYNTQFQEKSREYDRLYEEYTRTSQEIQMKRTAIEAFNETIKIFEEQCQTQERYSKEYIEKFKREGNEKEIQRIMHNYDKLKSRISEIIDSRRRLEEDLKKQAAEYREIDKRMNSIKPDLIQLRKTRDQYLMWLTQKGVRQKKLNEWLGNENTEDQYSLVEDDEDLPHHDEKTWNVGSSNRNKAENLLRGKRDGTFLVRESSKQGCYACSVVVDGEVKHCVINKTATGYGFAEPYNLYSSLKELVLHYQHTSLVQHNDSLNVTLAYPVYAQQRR

IC50 [1] [nM] | IC50 [2] [nM] | IC50 [3] [nM] | SMILES
< 500 | < 500 | < 50 | Cc1cc([C@@H](C)Nc2ccc(Br)nc2C(=O)O)c2oc(-c3ccc4nc(C)sc4n3)c(C)c(=O)c2c1 [Example 245, 6-Bromo-3-[[(1R)-1-[3,6-dimethyl-2-(2-methylthiazolo[5,4-b]pyridin-5-yl)-4-oxo-chromen-8-yl]ethyl]amino]pyridine-2-carboxylic acid]
1000 to 5000 | 5000 to 10000 | 100 to 500 | Cc1cc([C@@H](C)Nc2ccc(C)nc2C(=O)O)c2oc(-c3ccc4nc(C)sc4n3)cc(=O)c2c1 [Example 250, 6-Methyl-3-[[(1R)-1-[6-methyl-2-(2-methylthiazolo[5,4-b]pyridin-5-yl)-4-oxo-chromen-8-yl]ethyl]amino]pyridine-2-carboxylic acid]
< 500 | 1000 to 5000 | 100 to 500 | Cc1cc([C@@H](C)Nc2ccc(C(F)(F)F)nc2C(=O)O)c2oc(-c3ccc4nc(C)sc4n3)c(C)c(=O)c2c1 [Example 233, 3-[[(1R)-1-[3,6-Dimethyl-2-(2-methylthiazolo[5,4-b]pyridin-5-yl)-4-oxo-chromen-8-yl]ethyl]amino]-6-(trifluoromethyl)pyridine-2-carboxylic acid]
< 500 | 500 to 1000 | < 50 | Cc1cc([C@@H](C)Nc2ccc(Cl)cc2C(=O)O)c2oc(-c3ccc4nn(C)cc4c3)c(C)c(=O)c2c1 [Example 258, 5-Chloro-2-[[(1R)-1-[3,6-dimethyl-2-(2-methylindazol-5-yl)-4-oxo-chromen-8-yl]ethyl]amino]benzoic acid]
500 to 1000 | 1000 to 5000 | 50 to 100 | Cc1cc([C@@H](C)Nc2cccnc2C(=O)O)c2oc(-c3ccc4nn(C)cc4c3)c(C)c(=O)c2c1 [Example 240, 3-[[(1R)-1-[3,6-Dimethyl-2-(2-methylindazol-5-yl)-4-oxo-chromen-8-yl]ethyl]amino]pyridine-2-carboxylic acid]
< 500 | 500 to 1000 | < 50 | Cc1cc(C(C)Nc2ccccc2C(=O)O)c2oc(-c3ccc4nn(C)cc4c3)c(C)c(=O)c2c1 (single isomer, unassigned) [Example 91, 2-[1-[3,6-Dimethyl-2-(2-methylindazol-5-yl)-4-oxo-chromen-8-yl]ethylamino]benzoic acid]
< 500 | < 500 | 100 to 500 | Cc1cc([C@@H](C)Nc2cccc(F)c2C(=O)O)c2oc(-c3ccc4nc(C)cn4c3)c(C)c(=O)c2c1 [Example 229, 2-[[(1R)-1-[3,6-Dimethyl-2-(2-methylimidazo[1,2-a]pyridin-6-yl)-4-oxo-chromen-8-yl]ethyl]amino]-6-fluoro-benzoic acid]

Further lines, the compound ahead of its results:

SMILES | IC50 [1] [nM] | IC50 [2] [nM] | IC50 [3] [nM]
Cc1cc(C(C)Nc2ccccc2C(=O)O)c2oc(-c3ccc4cn[nH]c4c3)cc(=O)c2c1 (single isomer, unassigned) [Example 63, 2-[1-[2-(1H-Indazol-6-yl)-6-methyl-4-oxo-chromen-8-yl]ethylamino]benzoic acid] | < 500 | 500 to 1000 | < 50
CC(Nc1ccccc1C(=O)O)c1cc(C(F)(F)F)cc2c(=O)cc(-c3ccc4c(cnn4C)c3)oc12 (single isomer, unassigned) [Example 109, 2-[1-[2-(1-Methylindazol-5-yl)-4-oxo-6-(trifluoromethyl)chromen-8-yl]ethylamino]benzoic acid] | < 500 | 1000 to 5000 | < 50
Cc1cc(C(C)Nc2ccccc2C(=O)O)c2oc(-c3ccn4cc(C)nc4c3)cc(=O)c2c1 (single isomer, unassigned) [Example 3, 2-[1-[6-Methyl-2-(2-methylimidazo[1,2-a]pyridin-7-yl)-4-oxo-chromen-8-yl]ethylamino]benzoic acid] | < 500 | 1000 to 5000 | 50 to 100
Cc1cc(C(C)Nc2ccccc2C(=O)O)c2oc(-c3cc(F)c4nn(C)cc4c3)cc(=O)c2c1 (single isomer, unassigned) [Example 97, 2-[1-[2-(7-Fluoro-2-methyl-indazol-5-yl)-6-methyl-4-oxo-chromen-8-yl]ethylamino]benzoic acid] | < 500 | 1000 to 5000 | < 50
Cc1cc([C@@H](C)Nc2ccccc2C(=O)O)c2oc(-c3ccc4c(cnn4Cc4ccccc4)c3)c(C)c(=O)c2c1 [Example 211, 2-[[(1R)-1-[2-(1-Benzylindazol-5-yl)-3,6-dimethyl-4-oxo-chromen-8-yl]ethyl]amino]benzoic acid] | < 500 | 500 to 1000 | 50 to 100
Cc1cc(C(C)Nc2ccccc2C(=O)O)c2oc(-c3ccc4oc(C)nc4c3)cc(=O)c2c1 (single isomer, unassigned) [Example 19, 2-[1-[6-Methyl-2-(2-methyl-1,3-benzoxazol-5-yl)-4-oxo-chromen-8-yl]ethylamino]benzoic acid] | < 500 | 1000 to 5000 | > 500
Cc1cc(C(C)Nc2ccccc2C(=O)O)c2oc(-c3ccc4cc[nH]c4c3)c(C)c(=O)c2c1 (single isomer, unassigned) [Example 90, 2-[1-[2-(1H-Indol-6-yl)-3,6-dimethyl-4-oxo-chromen-8-yl]ethylamino]benzoic acid] | < 500 | 1000 to 5000 | < 50
Cc1cc([C@@H](C)Nc2cccc(F)c2C(=O)O)c2oc(-c3ccc4nc(C)cn4c3)cc(=O)c2c1 [Example 228, 2-Fluoro-6-[[(1R)-1-[6-methyl-2-(2-methylimidazo[1,2-a]pyridin-6-yl)-4-oxo-chromen-8-yl]ethyl]amino]benzoic acid] | < 500 | 500 to 1000 | 100 to 500
Cc1cc(C(C)Nc2ccccc2C(=O)O)c2oc(-c3cccc4ocnc34)cc(=O)c2c1 (single isomer, unassigned) [Example 110, 2-[1-[2-(1,3-Benzoxazol-4-yl)-6-methyl-4-oxo-chromen-8-yl]ethylamino]benzoic acid] | < 500 | 5000 to 10000 | < 50
Cc1cc(C(C)Nc2ccc(Cl)nc2C(=O)O)c2oc(-c3ccc4cc[nH]c4n3)cc(=O)c2c1 (single isomer, unassigned) [Example 215, 6-Chloro-3-[1-[6-methyl-4-oxo-2-(1H-pyrrolo[2,3-b]pyridin-6-yl)chromen-8-yl]ethylamino]pyridine-2-carboxylic acid] | < 500 | 500 to 1000 | < 50

Source: patent publication US11878970B2, “Allosteric chromenone inhibitors of phosphoinositide 3-kinase (PI3K) for the treatment of disease” (Petra Pharma Corporation, priority 2021, dated 2024)
